Structures can show the parent of a compound that is named as a salt.
Columns and labels:
plasma cholesterol = assay: Hypocholesterolemic activity, plasma cholesterol in mice fed test compound in diet; assay type: in vivo, OF1 strain mice; conditions: for change in vivo at 180 mg/kg/day: Mus musculus, feed or water, 240 h, read-out: Plasma Cholesterol (% Control), 0.1% compound in food, 10 days, ca. 180 mg/kg daily, mouse; for decrease plasma cholesterol by: 0.1% in food
Method: A. Hypocholesterolemic activity
Mouse fed a normal diet is a convenient model which was proposed by several authors (P. Olivier et al, Atherosclerosis 70, 107-114, 1988) ,for the screening for hypocholesterolemic drugs. OF1 strain mice (Iffa Credo) weighing between 25 and 35 g were divided into 5 groups of 5 animals each, four groups received the test compounds and the fifth group served as control. The test compounds were dissolved in diethyl ether. The ether solution was added to food to obtain a final concentration of 0.1%. compound in food. Ether was then evaporated at room temperature. The animals were fed for 10 days, the dally food intake corresponds to ca. 180 mg/kg. After an overnight fast, they were sacrificed by decapitation under ether anesthesia. Blood samples were collected using EDTA as anticoagulant.
Plasma cholesterol was measured by an enzymatic test (DIAMED, Morat, Switzerland). The mean values of each group receiving the test or reference compounds were expressed as percent of mean value of the contemporary control.

[1] = system: lipid peroxidation (rat liver homogenate); assay: Antioxidant activity, inhibition of iron induced lipid peroxidation in liver homogenate; assay type: biochemical, Wistar rat; conditions: FeSO4, 37° C., 2 h; <25 μM where IC50 was not determined
Method: The liver of a Wistar rat anesthetized with ether was collected and homogenized in 4 volumes of phosphate buffer (+4° C., pH 7.4) by means of a Potter. After centrifugation at 2000 rpm for 10 min the supernatant obtained was kept at +4° C. Lipid peroxidation was carried out in presence of FeSOhd according to the method described by A. T. Quitaniha et at, Ann.
The mixture contained 1.7 ml phosphate buffer, 0.2 ml homogenate and 0.1 ml of a 2 mM FeSO4 solution. The test compounds were added in a volume of 61 μl of ethanol or DMSO. Oxydation was carried out at 37° C. for 2 h and was stopped by the addition of 20 μl of 2% ethanolic solution of BHT.

Structure (SMILES)	change in vivo at 180 mg/kg/day (plasma cholesterol)	decrease plasma cholesterol by (plasma cholesterol; mouse, 10 days)	IC50 [1]	Plasma Cholesterol (% Control) (plasma cholesterol; 0.1% compound in food, 10 days, ca. 180 mg/kg daily, mouse)
CCOP(=O)(OCC)C(NCc1cccnc1)c1cc(C(C)(C)C)c(O)c(C(C)(C)C)c1 (stereo not drawn) [Compound 42, Diethyl α-(3,5-di-tert-butyl-4-hydroxyphenyl)-N-(3-picolyl)-aminomethylphosphonate]	-43%	more than 30%	12.8 µM	–
CCOP(=O)(OCC)C(NC1CCN(Cc2ccccc2)CC1)c1cc(C(C)(C)C)c(O)c(C(C)(C)C)c1 (stereo not drawn) [Compound 36]	-6%	–	< 25 µM	–
CCOP(=O)(OCC)C(NCCCc1ccccc1)c1ccc(O)c([N+](=O)[O-])c1 (stereo not drawn) [Compound 77]	-3%	–	> 25 µM	–
CCOP(=O)(OCC)C(Nc1ccc2c(c1)CCC2)c1cc(C(C)(C)C)c(O)c(C(C)(C)C)c1 (stereo not drawn) [Compound 47]	-2%	–	2.7 µM	–
CCCOP(=O)(OCCC)C(NCCCc1ccccc1)c1cc(C(C)(C)C)c(O)c(C(C)(C)C)c1 (stereo not drawn) [Compound 23]	-4%	–	< 25 µM	–
CCOP(=O)(OCC)C(c1cc(C(C)(C)C)c(O)c(C(C)(C)C)c1)N(CCCc1ccccc1)C(C)=O (stereo not drawn) [Compound 60, Diethyl α-(3,5-di-tert-butyl-4-hydroxyphenyl)-N-acetyl-N-(3-phenylpropyl)-aminomethylphosphonate]	-49%	more than 30%	2.6 µM	–
CCCOP(=O)(OCCC)C(NCCc1ccc(Cl)cc1)c1cc(C(C)(C)C)c(O)c(C(C)(C)C)c1 (stereo not drawn) [Compound 18]	-23%	–	2.9 µM	–
CCOP(=O)(OCC)C(NCc1ccccc1)c1ccc(O)c(OC)c1 (stereo not drawn) [Compound 70]	-10%	–	> 25 µM	–
CCOP(=O)(OCC)C(NCc1ccccc1)c1cc(OC)c(O)c(OC)c1 (stereo not drawn) [Compound 71]	1%	–	> 25 µM	–
CCOP(=O)(OCC)C(Nc1ccc(O)cc1)c1cc(C(C)(C)C)c(O)c(C(C)(C)C)c1 (stereo not drawn) [Compound 4]	-15%	–	4.1 µM	–
CCOP(=O)(OCC)C(Nc1ccccc1)c1cc(C(C)(C)C)c(O)c(C(C)(C)C)c1 (stereo not drawn) [Compound 3]	-30%	more than 30%	5.1 µM	–
CCOP(=O)(OCC)C(NCCc1ccc(C)cc1)c1cc(C(C)(C)C)c(O)c(C(C)(C)C)c1 (stereo not drawn) [Compound 14]	-6%	–	< 25 µM	–
CCCCCNC(c1cc(C(C)(C)C)c(O)c(C(C)(C)C)c1)P(=O)(OCC)OCC (stereo not drawn) [Compound 2]	-8%	–	2.5 µM	–
CCCCOP(=O)(OCCCC)C(NCCc1ccc(Cl)cc1)c1cc(C(C)(C)C)c(O)c(C(C)(C)C)c1 (stereo not drawn) [Compound 20]	-9%	–	3.4 µM	–
CCOP(=O)(OCC)C(c1cc(C(C)(C)C)c(O)c(C(C)(C)C)c1)N(C)c1ccccc1 (stereo not drawn) [Compound 50]	5%	–	2.9 µM	–
CCOP(=O)(OCC)C(NCCCc1ccccc1)c1cc(C(C)(C)C)c(O)c(C(C)(C)C)c1 (stereo not drawn) [Compound 26, Hydrochloride salt of diethyl α-(3,5-di-tert-butyl-4-hydroxyphenyl),N-(3-phenylpropyl)-animomethylphosphonate]	–	–	< 25 µM	-11 % Control
CCOP(=O)(OCC)C(NCCc1ccccc1)c1cc(C)c(O)c(C(C)(C)C)c1 (stereo not drawn) [Compound 75]	-12%	–	4.8 µM	–
CCOP(=O)(OCC)C(NC(C)c1cccc2ccccc12)c1cc(C(C)(C)C)c(O)c(C(C)(C)C)c1 (stereo not drawn) [Compound 31]	-3%	–	< 25 µM	–
CCOP(=O)(OCC)C(Nc1ccc(OC)cc1)c1cc(C(C)(C)C)c(O)c(C(C)(C)C)c1 (stereo not drawn) [Compound 7, Diethyl α-(3,5-di-tert-butyl-4-hydroxyphenyl)-N-(4-methoxyphenyl)-aminomethylphosphonate]	-47%	more than 30%	< 25 µM	–
